Read-outs that look alike come from different tables or passages of the source.
Tests used:
SARS-CoV-2 = test: Inhibitory activity of cytopathic effect (CPE) in HEK293T/ACE2-TMPRSS2 cells; format: cell-based; conditions: Severe acute respiratory syndrome coronavirus 2, HEK-293T, 72 h
SARS-CoV-2 3CL protease = SARS-CoV-2 3CL protease (Severe acute respiratory syndrome coronavirus 2, UniProt P0DTD1); test: Inhibitory activity test against SARS-CoV-2 3CL proteases; format: biochemical
[1] = HEK293T/ACE2-TMPRSS2 cells, cultured 3 days, CellTiter-Glo 2.0 luminescence, read-out: EC50 (50% SARS-CoV-2 infected cell death inhibitory concentration)
[2] = read-out: IC50 (50% SARS-CoV-2 3CL protease inhibitory concentration)
[3] = IC50 (50% SARS-CoV-2 3CL protease inhibitory concentration)
[4] = 50% SARS-CoV-2 infected cell death inhibitory concentration, HEK293T/ACE2-TMPRSS2 cells, CellTiter-Glo 2.0 after 3 days culture, read-out: EC50
[5] = read-out: EC50 (50% SARS-CoV-2 infected cell death inhibitory concentration)

| Compound | EC50 (SARS-CoV-2; [1]) | IC50 (SARS-CoV-2 3CL protease; [2]) | further results |
| --- | --- | --- | --- |
| CCN(C)c1cc2c(c(OC)n1)c(=O)n(-c1cnc3cc(F)ccn13)c(=O)n2-c1ccc(F)c(Cl)c1 [Compound I-0993] | < 100 nM | < 100 nM | – |
| COc1nc2c(=O)n(Cc3ncn(C)n3)c(=O)n(Cc3cc(Cl)c(F)cc3C)c2cc1-c1cc(C(C)(C)O)ccc1Cl [Compound I-0822] | < 100 nM | < 100 nM | – |
| CCOc1nc2c(=O)n(Cc3ncn(C)n3)c(=O)n(Cc3cc(F)c(F)c(F)c3)c2cc1-c1cc(C#N)ccc1Cl [Compound I-0692] | < 100 nM | < 100 nM | – |
| COc1nc(N2[C@@H]3COC[C@H]2C3)cc2c1c(=O)n(-c1cnc3cc(F)ccn13)c(=O)n2-c1ccc(F)c(Cl)c1 [Compound I-0755] | – | – | EC50 (SARS-CoV-2): 7.06 nM; IC50 (SARS-CoV-2 3CL protease; [3]): 5.6 nM |
| COc1nc(N2CC[C@@H](NC(C)=O)C2)cc2c1c(=O)n(-c1cnc3cc(F)ccn13)c(=O)n2-c1ccc(F)c(Cl)c1 [Compound I-1031] | 100 to 1000 nM | < 100 nM | – |
| [2H]C([2H])([2H])n1cnc(Cn2c(=O)c3c(OC)nc(N4CC[C@@H](F)C4)cc3n(Cc3cc(F)c(F)c(F)c3)c2=O)n1 [Compound I-0917] | < 100 nM | – | IC50 (SARS-CoV-2 3CL protease; [3]): < 100 nM |
| Cn1c(-c2cc(C#N)ccc2Cl)cc2c(c1=O)c(=O)n(-c1cnc3ccc(Cl)cn13)c(=O)n2Cc1cc(F)c(F)c(F)c1 [Compound I-0741] | – | 4.3 nM | EC50 (SARS-CoV-2; [4]): 105 nM |
| Cn1c(-c2cc(C#N)ccc2Cl)cc2c(c1=O)c(=O)n(-c1cnc3ccc(F)cn13)c(=O)n2Cc1cc(F)c(F)c(F)c1 [Compound I-0681] | < 100 nM | < 100 nM | – |
| COc1cc(-c2nc(C)ccc2Cl)cc2c1c(=O)n(Cc1ncn(C)n1)c(=O)n2Cc1cc(F)c(F)c(F)c1 [Compound I-0826] | < 100 nM | < 100 nM | – |
| [2H]C([2H])([2H])O[C@@H]1CCN(c2cc3c(c(OC)n2)c(=O)n(-c2cncc(F)c2)c(=O)n3-c2ccc(F)c(Cl)c2)C1 [Compound I-0953] | < 100 nM | < 100 nM | – |
| COc1c(-c2cc(C#N)ccc2Cl)cc2c(c(=O)n(Cc3ncn(C)n3)c(=O)n2Cc2cc(F)c(F)c(F)c2)[n+]1[O-] [Compound I-0709] | 1000 to 10000 nM | 100 to 1000 nM | – |
| COc1nc(N2CC[C@@H](C(=O)N3CCOCC3)C2)cc2c1c(=O)n(-c1cnc3cc(F)ccn13)c(=O)n2-c1ccc(F)c(Cl)c1 [Compound I-0627] | < 100 nM | < 100 nM | – |
| COc1nc(N2C[C@@H](F)[C@@H](F)C2)cc2c1c(=O)n(-c1cnc3cc(F)ccn13)c(=O)n2-c1ccc(F)c(Cl)c1 [Compound I-0747] | < 100 nM | < 100 nM | – |
| COc1nc(N2CCC(O)(C(F)F)C2)cc2c1c(=O)n(-c1cnc3cc(F)ccn13)c(=O)n2-c1ccc(F)c(Cl)c1 (centres unmarked) [Compound I-1056] | < 100 nM | < 100 nM | – |
| COc1cc(N2CCCC2)cc2c1c(=O)n(Cc1ncn(C)n1)c(=O)n2Cc1cc(Cl)ccc1Cl [Compound I-0784] | 100 to 1000 nM | < 100 nM | – |
| COc1nc(N2CCC(F)(F)C2)cc2c1c(=O)n(-c1cncc(C#N)c1)c(=O)n2-c1ccc(F)c(Cl)c1 [Compound I-0977] | < 100 nM | < 100 nM | – |
| CCOc1nc2cc(-c3cc(OC)c4c(=O)n(Cc5ncn(C)n5)c(=O)n(Cc5cc(F)c(F)c(F)c5)c4c3)c(Cl)cc2[nH]1 [Compound I-0852] | 100 to 1000 nM | < 100 nM | – |
| COc1nc2c(=O)n(Cc3ncn(C)n3)c(=O)n(Cc3cc(Cl)c(F)cc3C)c2cc1-c1ncc(F)cc1Cl [Compound I-0580] | < 100 nM | < 100 nM | – |
| Cn1cnc(Cn2c(=O)c3c4nc[nH]c4c(-c4cc(C#N)ccc4Cl)cc3n(Cc3cc(F)c(F)c(F)c3)c2=O)n1 [Compound I-0712] | 100 to 1000 nM | 100 to 1000 nM | – |
| CNC(=O)c1nc(-c2cc3c(nc2OC)c(=O)n(Cc2ncn(C)n2)c(=O)n3Cc2cc(F)c(F)c(Cl)c2)c(Cl)cc1F [Compound I-0881] | < 100 nM | < 100 nM | – |
| COc1nc(N2CC[C@@H](O)C2)cc2c1c(=O)n(-c1cnc3cc(F)ccn13)c(=O)n2-c1ccc(F)c(Cl)c1 [Compound I-0745] | < 100 nM | < 100 nM | – |
| Cn1cnc(Cn2c(=O)c3c4nccnc4c(N4CC[C@@H](O)C4)cc3n(Cc3cc(F)c(F)c(F)c3)c2=O)n1 (racemic) [Compound I-0552] | 100 to 1000 nM | < 100 nM | – |
| COc1cc(-c2ncc(F)cc2Cl)cc2c1c(=O)n(Cc1ncn(C)n1)c(=O)n2Cc1cc(F)c(F)c(F)c1 [Compound I-0827] | 100 to 1000 nM | < 100 nM | – |
| COc1cc(-c2c(Cl)ccc3c2CCC(=O)N3C)cc2c1c(=O)n(Cc1ncn(C)n1)c(=O)n2Cc1cc(F)c(F)c(F)c1 [Compound I-0868] | – | 1.6 nM | EC50 (SARS-CoV-2; [4]): 21.4 nM |
| COc1nc(N2C3CCC(O)C2CC3)cc2c1c(=O)n(Cc1ncn(C)n1)c(=O)n2Cc1cc(F)c(F)c(F)c1 (centres unmarked) [Compound I-0610] | – | – | EC50 (SARS-CoV-2; [5]): < 100 nM; IC50 (SARS-CoV-2 3CL protease; [3]): < 100 nM |

| Compound | EC50 (SARS-CoV-2; [1]) | IC50 (SARS-CoV-2 3CL protease; [2]) | further results |
| --- | --- | --- | --- |
| COc1nc(N2C[C@@H]3C[C@H]2CO3)cc2c1c(=O)n(-c1cnc3cc(F)ccn13)c(=O)n2-c1ccc(F)c(C(F)F)c1 [Compound I-0960] | < 100 nM | < 100 nM | – |
| COc1nc2c(=O)n(Cc3ncn(C)n3)c(=O)n(Cc3cc(F)c(F)c(Cl)c3)c2cc1-c1cc(N=S(C)(C)=O)ccc1Cl [Compound I-0887] | – | 9.8 nM | EC50 (SARS-CoV-2; [4]): 98.2 nM |
| CNC(=O)c1ccc(Cl)c(-c2cc3c(c4c2CCO4)c(=O)n(Cc2ncn(C)n2)c(=O)n3Cc2cc(F)c(F)c(Cl)c2)n1 [Compound I-0870] | < 100 nM | < 100 nM | – |
| COc1nc(N2CC[C@@H](C#N)C2)cc2c1c(=O)n(-c1cncc(C#N)c1)c(=O)n2-c1ccc(F)c(Cl)c1 [Compound I-0939] | < 100 nM | < 100 nM | – |
| [2H]C([2H])([2H])O[C@@H]1CCN(c2cc3c(c(OC)n2)c(=O)n(-c2cncc(C#N)c2)c(=O)n3-c2ccc(F)c(Cl)c2)C1 [Compound I-0948] | < 100 nM | < 100 nM | – |
| COc1nc(N2CC(O)(C(F)(F)F)C2)cc2c1c(=O)n(-c1cnc3cc(F)ccn13)c(=O)n2-c1ccc(F)c(Cl)c1 [Compound I-0753] | – | 21 nM | EC50 (SARS-CoV-2; [4]): 35.7 nM |
| COc1nc(N2CC[C@@H](O)C2)cc2c1c(=O)n(-c1cncc(F)c1)c(=O)n2-c1ccc(F)c(F)c1 [Compound I-1044] | < 100 nM | < 100 nM | – |
| COc1nc(-c2cc(C#N)ccc2Cl)cc2c1c(=O)n(-c1cnc3cc(F)ccn13)c(=O)n2Cc1cc(F)c(F)c(F)c1 [Compound I-0672] | < 100 nM | < 100 nM | – |
| Cn1cnc(Cn2c(=O)c3ncc(N4C[C@H]5C[C@@H]4CN5)nc3n(Cc3cc(F)c(F)c(F)c3)c2=O)n1 [Compound I-0684] | – | 370 nM | EC50 (SARS-CoV-2; [4]): 4580 nM |
| CCNC(=O)[C@@H]1CCN(c2cc3c(c(OC)n2)c(=O)n(-c2cnc4cc(F)ccn24)c(=O)n3-c2ccc(F)c(Cl)c2)C1 [Compound I-0626] | – | 14 nM | EC50 (SARS-CoV-2; [4]): 55.2 nM |
| COc1nc(N2CC[C@@H](CO)C2)cc2c1c(=O)n(-c1cncc(Cl)c1)c(=O)n2-c1ccc(F)c(Cl)c1 [Compound I-0969] | < 100 nM | < 100 nM | – |
| CCC(=O)c1ccc(Cl)c(-c2cc(OC)c3c(=O)n(Cc4ncn(C)n4)c(=O)n(Cc4cc(F)c(F)c(F)c4)c3c2)c1 [Compound I-0657] | – | 20 nM | EC50 (SARS-CoV-2; [4]): 76.1 nM |
| O=c1c2c(F)cc(N3[C@@H]4CC[C@H]3CNC4)cc2n(Cc2cc(F)c(F)c(Cl)c2)c(=O)n1-c1cnc2ccccn12 [Compound I-0548] | – | – | EC50 (SARS-CoV-2; [5]): < 100 nM; IC50 (SARS-CoV-2 3CL protease; [3]): < 100 nM |
| COc1cc(N2CCCC2)cc2c1c(=O)n(Cc1ncn(C)n1)c(=O)n2Cc1cc(Cl)ccc1Br [Compound I-0786] | 100 to 1000 nM | < 100 nM | – |
| CCn1c(-c2cc(C#N)ccc2Cl)cc2c(c1=O)c(=O)n(-c1cnc3cc(F)ccn13)c(=O)n2Cc1cc(F)c(F)c(F)c1 [Compound I-0739] | – | 0.98 nM | EC50 (SARS-CoV-2; [4]): 115 nM |
| COc1nc(NCC(F)(F)F)cc2c1c(=O)n(-c1cnc3cc(F)ccn13)c(=O)n2-c1ccc(F)c(Cl)c1 [Compound I-1041] | < 100 nM | < 100 nM | – |
| COC[C@H]1CCCN1c1cc2c(c(OC)n1)c(=O)n(-c1cnc3cc(F)ccn13)c(=O)n2-c1ccc(F)c(Cl)c1 [Compound I-1050] | < 100 nM | < 100 nM | – |
| COc1nc(NC2CCCC2)cc2c1c(=O)n(-c1cnc3cc(F)ccn13)c(=O)n2-c1ccc(F)c(Cl)c1 [Compound I-1046] | < 100 nM | – | IC50 (SARS-CoV-2 3CL protease; [3]): < 100 nM |
| [2H]C([2H])([2H])O[C@@H]1CCN(c2cc3c(c(OC)n2)c(=O)n(-c2cnc4cc(F)ccn24)c(=O)n3-c2ccc(F)c(Cl)c2)C1 [Compound I-0751] | < 100 nM | < 100 nM | – |
| COc1nc2c(=O)n(Cc3ncn(C)n3)c(=O)n(Cc3cc(F)c(F)c(Cl)c3)c2cc1-c1nc(C(=O)NC(C)C)ccc1Cl [Compound I-0883] | – | 3.3 nM | EC50 (SARS-CoV-2; [4]): 30.2 nM |
| COc1cc(-c2cc(C#N)ccc2Cl)cc2c1c(=O)n(-c1cncc(C)c1)c(=O)n2Cc1cc(F)c(F)c(F)c1 [Compound I-0026] | – | 6.5 nM | – |
| N#Cc1ccc(Cl)c(-c2cc3c(c4c2CCO4)c(=O)n(Cc2cc(F)c[nH]c2=O)c(=O)n3Cc2cc(F)c(F)c(F)c2)c1 [Compound I-0504] | – | < 100 nM | – |
| COc1cc(-c2cc(C(C)(C)O)ccc2Cl)cc2c1c(=O)n(-c1cncc(Cl)c1)c(=O)n2Cc1cc(F)c(F)c(F)c1 [Compound I-0075] | – | 18 nM | – |
| COc1ccc(Cl)c(-c2cc(OC)c3c(=O)n(Cc4ncn(C)n4)c(=O)n(Cc4cc(F)c(F)c(F)c4)c3c2)c1 [Compound I-0523] | – | 32 nM | – |
| O=C1Cc2cc(-c3cc(F)c4c(=O)n(-c5cncc(Cl)c5)c(=O)n(Cc5cc(Cl)c(F)cn5)c4c3)c(Cl)cc2N1 [Compound I-0077] | – | < 100 nM | – |

From patent US20240400560A1, “BICYCLIC HETEROCYCLIC DERIVATIVE HAVING VIRAL GROWTH INHIBITORY ACTIVITY AND PHARMACEUTICAL COMPOSITION CONTAINING SAME” (Shionogi & Co., Ltd., priority 2021, published 2024)
